Reference: patent US12410208B2, “(2-acetamidyl)thio-beta-D-galactopyranoside derivatives” (Idorsia Pharmaceuticals Ltd, priority 2020, dated 2025)
Read-outs that look alike come from different tables or passages of the source. Each block holds one compound with its values, some of them ahead of it.

Legend:
[1] = molecular target: biotinylated human Gal-3 (hGal-3) (Homo sapiens, UniProt P17931); experiment: Competitive binding assay: biotinylated hGal-3 binding to microplate-adsorbed asialofetuin (ASF), spectrophotometric
Method: If not explicitly mentioned otherwise, the inhibition data refer to the binding of biotinylated human Gal-3 (hGal-3).
(§1) Biological Assay Evaluation of Compound Inhibitory Activity (IC50)
The inhibitory activity of compounds is determined in competitive binding assays.
Briefly, compounds are serially diluted in DMSO (working dilutions).
(§2) Plates are incubated for 3 hours at 4° C., then washed with cold assay buffer (3×50 uL), incubated for 1 hour with 25 μL/well of a streptavidin-peroxidase solution (diluted in assay buffer to 80 ng/mL) at 4° C., followed by further washing steps with assay buffer (3×50 uL). Finally, 25 μL/well of ABTS substrate is added.
(§3) The calculated IC50 values may fluctuate depending on the daily assay performance. Fluctuations of this kind are known to those skilled in the art. IC50 values from several measurements are given as mean values.

human Gal-1 (hGal-1) = human Gal-1 (hGal-1) (Homo sapiens, UniProt P09382); experiment: Competitive binding assay: biotinylated hGal-1 binding to microplate-adsorbed asialofetuin (ASF), spectrophotometric; settings: hGal-1 binding to asialofetuin; Table 15; R and S epimers of selected Examples also listed; read-out: IC50 (Galectin-1 inhibition)
Method: as §1
The inhibitory activity of compounds is determined in competitive binding assays. This spectrophotometric assay measures the binding of biotinylated human Gal-3 (hGal-3) or human Gal-1 (hGal-1), respectively, to a microplate-adsorbed glycoprotein, asialofetuin (ASF) (Proc Natl Acad Sci USA. 2013 Mar. 26; 110(13):5052-7.).
Briefly, compounds are serially diluted in DMSO (working dilutions). ASF-coated 384well plates are supplemented with 22.8 μL/well of biotinylated hGal-3 or hGal-1 in assay buffer (i.e. 300-1000 ng/mL biotinylated hGal-3 or hGal-1) to which 1.2 μL of compound working dilutions are added and mixed.
as §2, §3

[2] = Table 11, hGal-3, read-out: IC50 (Gal-3 inhibition)
[3] = Gal-3 inhibition, Table 4, read-out: IC50
[4] = Table 6, hGal-3, read-out: IC50 (Gal-3 inhibition)
[5] = Table 12, hGal-3, read-out: IC50 (Gal-3 inhibition)
[6] = Gal-3 inhibition, Table 7, read-out: IC50

biotinylated human Gal-3 (hGal-3), sequence (P17931 whole entry): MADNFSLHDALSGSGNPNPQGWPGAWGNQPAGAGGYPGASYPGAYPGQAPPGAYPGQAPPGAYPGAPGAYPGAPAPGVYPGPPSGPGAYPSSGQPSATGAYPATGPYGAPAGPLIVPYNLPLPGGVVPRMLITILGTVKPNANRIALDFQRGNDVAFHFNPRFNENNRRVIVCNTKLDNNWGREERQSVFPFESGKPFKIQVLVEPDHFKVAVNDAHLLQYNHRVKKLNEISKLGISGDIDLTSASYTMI
human Gal-1 (hGal-1), sequence (P09382 whole entry): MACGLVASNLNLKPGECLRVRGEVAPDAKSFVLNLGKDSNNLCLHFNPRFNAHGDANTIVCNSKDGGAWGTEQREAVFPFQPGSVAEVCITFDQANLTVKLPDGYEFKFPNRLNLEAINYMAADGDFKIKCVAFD

IC50 [1, 2]: 230 nM
Compound: Cc1cc(-c2cn([C@H]3[C@@H](O)[C@@H](CO)O[C@@H](S[C@@H](C(=O)N(C)C4CC4)C4(O)CCC(F)(F)CC4)[C@@H]3O)nn2)cnc1F [Example 21.44.221R, (R)-N-Cyclopropyl-2-(4,4-difluoro-1-hydroxycyclohexyl)-2-(((2S,3R,4S,5R,6R)-4-(4-(6-fluoro-5-methylpyridin-3-yl)-1H-1,2,3-triazol-1-yl)-3,5-dihydroxy-6-(hydroxymethyl)tetrahydro-2H-pyran-2-yl)thio)-N-methylacetamide]

IC50 ([1]; Table 10, hGal-3, read-out: IC50 (Gal-3 inhibition)): 40 nM
Compound: CCN(C(=O)C(S[C@@H]1O[C@H](CO)[C@H](O)[C@H](n2cc(-c3cc(F)c(F)c(F)c3)nn2)[C@H]1OC)C1(O)CCC(F)(F)CC1)C1CC1 (stereo partly drawn) [Example 2.44.238.I.]

IC50 (human Gal-1 (hGal-1)): 70 nM
Compound: Cc1cc(-c2cn([C@H]3[C@@H](O)[C@@H](CO)O[C@@H](S[C@H](C(=O)N(C)C4CC4)C4(O)CCC(F)(F)CC4)[C@@H]3O)nn2)cnc1F [Example 21.44.221S., (S)-N-Cyclopropyl-2-(4,4-difluoro-1-hydroxycyclohexyl)-2-(((2S,3R,4S,5R,6R)-4-(4-(6-fluoro-5-methylpyridin-3-yl)-1H-1,2,3-triazol-1-yl)-3,5-dihydroxy-6-(hydroxymethyl)tetrahydro-2H-pyran-2-yl)thio)-N-methylacetamide]

IC50 [1, 3]: 1530 nM
Compound: CN(CCC1CCOCC1)C(=O)[C@H](S[C@@H]1O[C@H](CO)[C@H](O)[C@H](n2cc(-c3cc(F)c(F)c(F)c3)nn2)[C@H]1O)C1(O)CCOCC1 [Example 2.41.216R., (R)-2-(((2S,3R,4S,5R,6R)-3,5-Dihydroxy-6-(hydroxymethyl)-4-(4-(3,4,5-trifluorophenyl)-1H-1,2,3-triazol-1-yl)tetrahydro-2H-pyran-2-yl)thio)-2-(4-hydroxytetrahydro-2H-pyran-4-yl)-N-methyl-N-(2-(tetrahydro-2H-pyran-4-yl)ethyl)acetamide]

IC50 (human Gal-1 (hGal-1)): 220 nM
Compound: Cc1cc(-c2cn([C@H]3[C@@H](O)[C@@H](CO)O[C@@H](S[C@@H](C(=O)N(C)C4CC4)C4(O)CCC(F)(F)CC4)[C@@H]3O)nn2)cnc1F [Example 21.44.221R., (R)-N-Cyclopropyl-2-(4,4-difluoro-1-hydroxycyclohexyl)-2-(((2S,3R,4S,5R,6R)-4-(4-(6-fluoro-5-methylpyridin-3-yl)-1H-1,2,3-triazol-1-yl)-3,5-dihydroxy-6-(hydroxymethyl)tetrahydro-2H-pyran-2-yl)thio)-N-methylacetamide]

IC50 (human Gal-1 (hGal-1)): 830 nM
Compound: CO[C@@H]1[C@@H](n2cc(-c3cc(F)c(F)c(F)c3)nn2)[C@@H](O)[C@@H](CO)O[C@H]1SC(C(=O)NC1CCC(C)(C)CC1)C1(O)CCC(F)(F)CC1 (stereo partly drawn) [Example 2.44.255.I., 2-(4,4-Difluoro-1-hydroxycyclohexyl)-N-(4,4-dimethylcyclohexyl)-2-(((2S,3R,4S,5R,6R)-5-hydroxy-6-(hydroxymethyl)-3-methoxy-4-(4-(3,4,5-trifluorophenyl)-1H-1,2,3-triazol-1-yl)tetrahydro-2H-pyran-2-yl)thio)acetamide]

IC50 (human Gal-1 (hGal-1)): 530 nM
Compound: CC(C)(O)[C@H](S[C@@H]1O[C@H](CO)[C@H](O)[C@H](n2cc(-c3cc(F)c(F)c(F)c3)nn2)[C@H]1O)C(=O)N1CCCC1 [Example 2.31.211S., (S)-2-(((2S,3R,4S,5R,6R)-3,5-Dihydroxy-6-(hydroxymethyl)-4-(4-(3,4,5-trifluorophenyl)-1H-1,2,3-triazol-1-yl)tetrahydro-2H-pyran-2-yl)thio)-3-hydroxy-3-methyl-1-(pyrrolidin-1-yl)butan-1-one]

IC50 [1, 4]: 80 nM
Compound: CC(C)(O)[C@H](S[C@@H]1O[C@H](CO)[C@H](O)[C@H](n2cc(-c3cc(F)c(F)c(F)c3)nn2)[C@H]1O)C(=O)N1CCCC1 [Example 2.31.211S, (S)-2-(((2S,3R,4S,5R,6R)-3,5-Dihydroxy-6-(hydroxymethyl)-4-(4-(3,4,5-trifluorophenyl)-1H-1,2,3-triazol-1-yl)tetrahydro-2H-pyran-2-yl)thio)-3-hydroxy-3-methyl-1-(pyrrolidin-1-yl)butan-1-one]

IC50 (human Gal-1 (hGal-1)): 20000 nM
Compound: (R)-2-(((2S,3R,4S,5R,6R)-3,5-dihydroxy-6-(hydroxymethyl)-4-(4-(3,4,5-trifluorophenyl)-1H-1,2,3-triazol-1-yl)tetrahydro-2H-pyran-2-yl)thio)-3-hydroxy-3-methyl-1-(3-methylazetidin-1-yl)butan-1-one [Example 2.31.205R.]

IC50 [1, 5]: 90 nM
Compound: CO[C@@H]1[C@@H](n2cc(-c3cc(F)c(F)c(F)c3)nn2)[C@@H](O)[C@@H](CO)O[C@H]1SC(C(=O)N(C)C1CC(F)(F)C1)C1(O)CCC(F)(F)CC1 (stereo partly drawn) [Example 2.44.237.I., 2-(4,4-Difluoro-1-hydroxycyclohexyl)-N-(3,3-difluorocyclobutyl)-2-(((2S,3R,4S,5R,6R)-5-hydroxy-6-(hydroxymethyl)-3-methoxy-4-(4-(3,4,5-trifluorophenyl)-1H-1,2,3-triazol-1-yl)tetrahydro-2H-pyran-2-yl)thio)-N-methylacetamide]

IC50 [1, 6]: 120 nM
Compound: CCC(O)C(S[C@@H]1O[C@H](CO)[C@H](O)[C@H](n2cc(-c3cc(F)c(F)c(F)c3)nn2)[C@H]1O)C(=O)N(C)CC1CC1 (stereo partly drawn) [Example 2.60.218., N-(Cyclopropylmethyl)-2-(((2S,3R,4S,5R,6R)-3,5-dihydroxy-6-(hydroxymethyl)-4-(4-(3,4,5-trifluorophenyl)-1H-1,2,3-triazol-1-yl)tetrahydro-2H-pyran-2-yl)thio)-3-hydroxy-N-methylpentanamide]

Compound: (R)-2-(4,4-Difluoro-1-hydroxycyclohexyl)-2-(((2S,3R,4S,5R,6R)-3,5-dihydroxy-6-(hydroxymethyl)-4-(4-(3,4,5-trifluorophenyl)-1H-1,2,3-triazol-1-yl)tetrahydro-2H-pyran-2-yl)thio)-1-(piperidin-1-yl)ethan-1-one [Example 2.44.208R.]
IC50 ([1]; Gal-3 inhibition, Table 5, read-out: IC50): 3360 nM

IC50 ([1]; Gal-3 inhibition, Table 3, read-out: IC50): 3880 nM
Compound: CCN(C)C(=O)[C@H](S[C@@H]1O[C@H](CO)[C@H](O)[C@H](n2cc(-c3cc(F)c(F)c(F)c3)nn2)[C@H]1O)C(C)(C)O [Example 2.31.203R., (R)-2-(((2S,3R,4S,5R,6R)-3,5-Dihydroxy-6-(hydroxymethyl)-4-(4-(3,4,5-trifluorophenyl)-1H-1,2,3-triazol-1-yl)tetrahydro-2H-pyran-2-yl)thio)-N-ethyl-3-hydroxy-N,3-dimethylbutanamide]

IC50 [1, 3]: 1310 nM
Compound: O=C([C@H](S[C@@H]1O[C@H](CO)[C@H](O)[C@H](n2cc(-c3cc(F)c(F)c(F)c3)nn2)[C@H]1O)C1(O)CCOCC1)N1CCc2ccccc21 [Example 2.41.209R., (R)-2-(((2S,3R,4S,5R,6R)-3,5-Dihydroxy-6-(hydroxymethyl)-4-(4-(3,4,5-trifluorophenyl)-1H-1,2,3-triazol-1-yl)tetrahydro-2H-pyran-2-yl)thio)-2-(4-hydroxytetrahydro-2H-pyran-4-yl)-1-(indolin-1-yl)ethan-1-one]

IC50 [1, 4]: 310 nM
Compound: CC(C)(O)[C@@H](S[C@@H]1O[C@H](CO)[C@H](O)[C@H](n2cc(-c3cc(F)c(F)c(F)c3)nn2)[C@H]1O)C(=O)N1CCCC1 [Example 2.31.211R., (R)-2-(((2S,3R,4S,5R,6R)-3,5-Dihydroxy-6-(hydroxymethyl)-4-(4-(3,4,5-trifluorophenyl)-1H-1,2,3-triazol-1-yl)tetrahydro-2H-pyran-2-yl)thio)-3-hydroxy-3-methyl-1-(pyrrolidin-1-yl)butan-1-one]

IC50 [1, 6]: 220 nM
Compound: CCN(C)C(=O)C(S[C@@H]1O[C@H](CO)[C@H](O)[C@H](n2cc(-c3cc(F)c(F)c(F)c3)nn2)[C@H]1O)C(O)Cc1ccccc1 (stereo partly drawn) [Example 2.64.203., 2-(((2S,3R,4S,5R,6R)-3,5-Dihydroxy-6-(hydroxymethyl)-4-(4-(3,4,5-trifluorophenyl)-1H-1,2,3-triazol-1-yl)tetrahydro-2H-pyran-2-yl)thio)-N-ethyl-3-hydroxy-N-methyl-4-phenylbutanamide]

IC50 [1, 5]: 390 nM
Compound: CO[C@@H]1[C@@H](n2cc(-c3cc(F)c(F)c(F)c3)nn2)[C@@H](O)[C@@H](CO)O[C@H]1SC(C(=O)NC1CCC(C)(C)CC1)C1(O)CCC(F)(F)CC1 (stereo partly drawn) [Example 2.44.255.I, 2-(4,4-Difluoro-1-hydroxycyclohexyl)-N-(4,4-dimethylcyclohexyl)-2-(((2S,3R,4S,5R,6R)-5-hydroxy-6-(hydroxymethyl)-3-methoxy-4-(4-(3,4,5-trifluorophenyl)-1H-1,2,3-triazol-1-yl)tetrahydro-2H-pyran-2-yl)thio)acetamide]

IC50 [1, 2]: 50 nM
Compound: Cc1cc(-c2cn([C@H]3[C@@H](O)[C@@H](CO)O[C@@H](S[C@H](C(=O)N(C)C4CC4)C4(O)CCC(F)(F)CC4)[C@@H]3O)nn2)cnc1F [Example 21.44.221S, (S)-N-Cyclopropyl-2-(4,4-difluoro-1-hydroxycyclohexyl)-2-(((2S,3R,4S,5R,6R)-4-(4-(6-fluoro-5-methylpyridin-3-yl)-1H-1,2,3-triazol-1-yl)-3,5-dihydroxy-6-(hydroxymethyl)tetrahydro-2H-pyran-2-yl)thio)-N-methylacetamide]
